Patent publication US8703437B2, “Fluorogenic sensors for phospholipase C isozymes” (The University of North Carolina at Chapel Hill, priority 2010, dated 2014)

Target: T1, PLC-γ1 (Homo sapiens, UniProt P19174)
T1 construct: addition of 4 ng of purified full-length wild-type PLC-γ1; made in house; host or cells: insect cells
T1 sequence (P19174 1-1290): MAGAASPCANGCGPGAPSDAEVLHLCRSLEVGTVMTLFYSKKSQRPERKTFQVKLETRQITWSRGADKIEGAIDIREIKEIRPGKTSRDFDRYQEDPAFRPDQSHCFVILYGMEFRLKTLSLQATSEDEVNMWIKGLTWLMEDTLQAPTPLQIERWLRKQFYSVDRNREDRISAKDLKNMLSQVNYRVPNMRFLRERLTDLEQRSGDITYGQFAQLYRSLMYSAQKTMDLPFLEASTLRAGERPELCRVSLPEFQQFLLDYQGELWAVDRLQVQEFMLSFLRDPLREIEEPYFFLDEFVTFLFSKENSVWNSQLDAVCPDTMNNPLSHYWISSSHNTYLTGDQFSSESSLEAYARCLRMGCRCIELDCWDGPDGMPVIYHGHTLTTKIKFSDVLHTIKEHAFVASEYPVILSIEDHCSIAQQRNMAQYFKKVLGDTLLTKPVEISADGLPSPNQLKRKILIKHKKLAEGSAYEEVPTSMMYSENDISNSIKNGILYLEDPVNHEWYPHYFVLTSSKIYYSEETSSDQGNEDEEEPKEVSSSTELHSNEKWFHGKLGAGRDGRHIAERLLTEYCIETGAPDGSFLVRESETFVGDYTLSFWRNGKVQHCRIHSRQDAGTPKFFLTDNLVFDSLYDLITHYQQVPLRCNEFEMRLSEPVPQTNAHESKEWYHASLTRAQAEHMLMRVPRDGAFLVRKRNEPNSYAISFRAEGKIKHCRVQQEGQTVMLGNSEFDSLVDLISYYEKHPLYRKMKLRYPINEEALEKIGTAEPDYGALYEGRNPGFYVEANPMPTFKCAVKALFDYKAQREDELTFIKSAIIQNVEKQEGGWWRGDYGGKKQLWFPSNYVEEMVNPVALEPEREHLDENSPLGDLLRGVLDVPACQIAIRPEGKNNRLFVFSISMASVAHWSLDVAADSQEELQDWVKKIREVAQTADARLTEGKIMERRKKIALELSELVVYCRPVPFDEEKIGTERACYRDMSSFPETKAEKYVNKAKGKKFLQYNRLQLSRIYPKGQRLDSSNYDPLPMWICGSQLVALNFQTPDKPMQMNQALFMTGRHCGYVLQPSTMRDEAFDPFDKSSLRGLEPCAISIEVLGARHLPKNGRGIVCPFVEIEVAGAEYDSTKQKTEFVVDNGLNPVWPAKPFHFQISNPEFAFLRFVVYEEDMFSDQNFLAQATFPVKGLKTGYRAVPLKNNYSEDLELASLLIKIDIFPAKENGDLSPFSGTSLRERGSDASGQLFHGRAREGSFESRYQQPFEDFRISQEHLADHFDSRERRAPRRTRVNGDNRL
Test: Kinetic studies with PLC-γ1
Type: biochemical
Settings: endogenous substrate PIP2, [3H]PtdIns-(4,5)P2, liquid scintillation counting, 30° C.
Description: For comparison, the endogenous substrate, PIP2, was also applied in the enzymatic reaction under similar conditions.
The assays were started by the addition of 4 ng of purified full-length wild-type PLC-γ1. The reaction mixtures were then incubated at 30° C., and fluorescence was measured continuously as described above. For kinetic studies with the endogenous PIP2, a mixture of PtdIns-(4,5)P2 (300 μM, Avanti Polar Lipids) and ˜10,000 cpm of [^3H]PtdIns-(4,5)P2 was dried under a stream of nitrogen and resuspended in 0.5% cholate. The resulting lipid stock was diluted to obtain final assay conditions with either 280, 160, 80, 24, or 8 μM PtdIns(4,5)P2 in the same buffer as described above in a final volume of 60 μL. Assays were initiated by the addition of 17 ng of purified full-length wild-type PLC-γ1. After incubation at 30° C. at time intervals between 0-8 min, reactions were stopped by the addition of 200 μL of 10% (v/v) trichloroacetic acid (TCA) and 100 μL of 10 mg/mL BSA to precipitate uncleaved lipids and protein. Centrifugation of the reaction mixture isolated soluble [^3H]Ins(1,4,5)P3, which was quantified using liquid scintillation counting.

- Km: 28 ± 2.6 µM
- Vmax: 2.7 ± 0.07 pmol/min/ng
Substance: phosphatidylinositol 4,5-bisphosphate [PIP2]
